{"source": "paper PMC9620869", "about": "(Cancer Research, 2022)", "key": {"[1]": {"experiment": "in vivo", "conditions": "male, C57Bl/6, mouse, plasma, po, 10 mg/kg"}, "[2]": {"tested_on": "hiPSC-CMs", "experiment": "hiPSC-CM contractility", "assay_type": "cell-based", "conditions": "Homo sapiens, 96 h, read-out: hiPSC-CM contractility IC50"}, "[3]": {"tested_on": "serum cardiac Troponin-I", "conditions": "30 mg/kg oral daily, end of treatment"}, "[4]": {"tested_on": "HMVEC-Cs", "experiment": "Vasculogenesis assay", "conditions": "Homo sapiens, 6 h"}, "[5]": {"conditions": "oral dose escalation, maximal dose 60 mg/kg, 30 days"}}, "data": [{"smiles": "Cc1ccc(C(=O)Nc2ccc(CN3CCN(C)CC3)c(C(F)(F)F)c2)cc1C#Cc1cnc2cccnn12", "note": "[Ponatinib]", "values": [{"measurement": "Cmax", "setting": "[1]", "value": 200, "unit": "ng/mL"}, {"measurement": "Tmax", "setting": "[1]", "value": 2, "unit": "h"}, {"measurement": "IC50", "setting": "[2]", "value": "> 1500", "unit": "nM"}, {"measurement": "serum cardiac Troponin-I levels compared with vehicle alone", "setting": "[3]", "value": "significantly elevated levels"}, {"measurement": "IC50", "setting": "[4]; read-out: Vascular profile IC50", "value": "~200", "unit": "nM"}, {"measurement": "EC50", "setting": "[4]; read-out: Vasculotoxicity (EC50, μmol/L) mean ± SEM", "value": "0.2 ± 0.04", "unit": "µmol/L"}, {"measurement": "dose causing lethality", "setting": "[5]", "value": 50, "unit": "mg/kg"}]}]}
